What all share (type): biochemical
The target of one assay is T1, PfFKBP35 (Plasmodium falciparum, UniProt Q8I4V8).
T1 construct: gene FKBP35; endogenous protein in parasite lysate
As to the kind of experiment: isothermal dose-response MS-CETSA on parasite protein lysate ([…]°C); live-cell CETSA EC50 […].

Assay [1] addresses T2, pre-mRNA-splicing factor CEF1 (Plasmodium falciparum, UniProt Q7KQL1).
T2 construct: gene PF3D7_1033600; endogenous protein in parasite lysate
The experiment in a line: isothermal dose-response MS-CETSA on parasite protein lysate (putative target).

Assay [2] deals with T3, N6-methyl transferase MT-A70 (Plasmodium falciparum, UniProt Q8I6Z2).
T3 construct: gene PF3D7_0729500; endogenous protein in parasite lysate
The assay is described as above.

T3 sequence (Q8I6Z2 entry or part of it): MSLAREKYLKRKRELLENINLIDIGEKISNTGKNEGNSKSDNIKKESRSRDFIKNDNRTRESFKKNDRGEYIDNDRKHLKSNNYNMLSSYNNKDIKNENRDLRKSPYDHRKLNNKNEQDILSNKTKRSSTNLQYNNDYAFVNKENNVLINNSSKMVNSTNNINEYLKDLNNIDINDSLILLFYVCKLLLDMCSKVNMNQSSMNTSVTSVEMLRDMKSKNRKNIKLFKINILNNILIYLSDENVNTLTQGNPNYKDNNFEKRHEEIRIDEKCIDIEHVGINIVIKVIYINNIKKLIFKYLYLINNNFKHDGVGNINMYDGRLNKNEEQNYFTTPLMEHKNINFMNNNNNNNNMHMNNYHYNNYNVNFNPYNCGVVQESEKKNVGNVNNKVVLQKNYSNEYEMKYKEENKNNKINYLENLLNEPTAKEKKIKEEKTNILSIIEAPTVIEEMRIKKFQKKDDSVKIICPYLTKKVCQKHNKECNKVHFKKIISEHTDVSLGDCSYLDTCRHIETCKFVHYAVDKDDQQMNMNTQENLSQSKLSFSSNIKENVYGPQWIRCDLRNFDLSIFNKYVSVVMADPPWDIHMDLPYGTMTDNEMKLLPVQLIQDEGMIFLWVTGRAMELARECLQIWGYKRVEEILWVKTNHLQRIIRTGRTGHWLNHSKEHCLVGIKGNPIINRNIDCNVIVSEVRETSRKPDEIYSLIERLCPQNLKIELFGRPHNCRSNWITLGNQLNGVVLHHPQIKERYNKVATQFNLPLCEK
T1 sequence (Q8I4V8 whole entry): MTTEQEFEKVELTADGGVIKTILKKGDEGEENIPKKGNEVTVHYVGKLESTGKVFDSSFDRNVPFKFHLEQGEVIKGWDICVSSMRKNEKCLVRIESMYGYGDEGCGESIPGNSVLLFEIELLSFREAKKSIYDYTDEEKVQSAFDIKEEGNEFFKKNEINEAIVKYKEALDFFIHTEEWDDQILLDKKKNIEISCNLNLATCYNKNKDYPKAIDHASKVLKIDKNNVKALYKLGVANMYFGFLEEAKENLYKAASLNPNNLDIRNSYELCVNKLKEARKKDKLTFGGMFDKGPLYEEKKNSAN
T2 sequence (Q7KQL1 entry or part of it): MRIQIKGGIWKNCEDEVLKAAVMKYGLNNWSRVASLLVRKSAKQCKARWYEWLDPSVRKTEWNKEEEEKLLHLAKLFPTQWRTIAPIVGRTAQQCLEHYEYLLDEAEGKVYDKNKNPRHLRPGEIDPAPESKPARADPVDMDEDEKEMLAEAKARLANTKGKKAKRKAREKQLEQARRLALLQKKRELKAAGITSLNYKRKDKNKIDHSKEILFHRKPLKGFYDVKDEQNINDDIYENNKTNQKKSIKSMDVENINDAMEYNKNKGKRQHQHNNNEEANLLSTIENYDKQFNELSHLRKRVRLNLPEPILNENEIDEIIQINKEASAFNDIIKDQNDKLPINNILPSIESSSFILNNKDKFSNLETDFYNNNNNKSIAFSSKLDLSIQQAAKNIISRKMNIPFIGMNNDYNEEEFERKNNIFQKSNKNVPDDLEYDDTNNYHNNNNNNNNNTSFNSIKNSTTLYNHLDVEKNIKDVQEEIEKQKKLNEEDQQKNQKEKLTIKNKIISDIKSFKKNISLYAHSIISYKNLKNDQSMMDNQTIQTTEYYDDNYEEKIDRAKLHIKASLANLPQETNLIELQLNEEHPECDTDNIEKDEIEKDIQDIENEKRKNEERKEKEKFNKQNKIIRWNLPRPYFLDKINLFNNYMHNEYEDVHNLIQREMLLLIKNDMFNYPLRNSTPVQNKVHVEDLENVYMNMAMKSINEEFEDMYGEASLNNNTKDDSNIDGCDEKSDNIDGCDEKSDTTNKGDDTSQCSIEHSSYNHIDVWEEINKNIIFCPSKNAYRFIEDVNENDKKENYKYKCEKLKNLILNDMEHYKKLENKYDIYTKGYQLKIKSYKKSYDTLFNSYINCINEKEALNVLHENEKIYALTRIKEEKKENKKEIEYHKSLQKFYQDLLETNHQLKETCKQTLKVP

Regarding `C=CC[C@@H]1/C=C(\C)C[C@H](C)C[C@H](OC)[C@H]2O[C@@](O)(C(=O)C(=O)N3CCCC[C@H]3C(=O)O[C@H](/C(C)=C/[C@@H]3CC[C@@H](O)[C@H](OC)C3)[C@H](C)[C@@H](O)CC1=O)[C@H](C)C[C@@H]2OC` [FK506], the values for the EC50 (at PfFKBP35; in assay [1]; in assay [2]) were 152 nM, 3100 nM and 2000 nM, respectively.

(Values after PMC10629825, “Genetic validation of PfFKBP35 as an antimalarial drug target” (eLife, 2023).)
